Converted amounts (≈) assume the structure as drawn.
Columns and labels:
Assay type in all cases: cell-based
[1] = test system: STAPHYLOCOCCUS AUREUS A-5278; assay: In vitro antibacterial activity, MIC, BHI agar dilution; settings: S. aureus A-5278, unit assumed
[2] = test system: STAPHYLOCOCCUS AUREUS CMX 553; assay: as above; settings: S. aureus CMX 553, unit assumed
[3] = test system: STREPTOCOCCUS PYOGENES 930; assay: as above; settings: S. pyogenes 930, unit assumed
[4] = test system: PSEUDOMONAS AERUGINOSA DPHD-5263; assay: as above; settings: P. aeruginosa DPHD-5263, unit assumed
[5] = test system: PSEUDOMONAS AERUGINOSA 5007; assay: as above; settings: P. aeruginosa 5007, unit assumed
[6] = test system: PSEUDOMONAS AERUGINOSA BMH10; assay: as above; settings: P. aeruginosa BMH10, unit assumed
[7] = test system: STAPHYLOCOCCUS AUREUS CMX 642A; assay: as above; settings: S. aureus CMX 642A, unit assumed
[8] = test system: MYCOBACTERIUM SMEGMATIS ATCC 114; assay: as above; settings: M. smegmatis ATCC 114, unit assumed
ESCHERICHIA COLI H560 = assay: as above; settings: E. coli H560, unit assumed
[9] = test system: STAPHYLOCOCCUS AUREUS 1775; assay: as above; settings: S. aureus 1775, unit assumed
[10] = test system: STREPTOCOCCUS PYOGENES EES61; assay: as above; settings: S. pyogenes EES61, unit assumed
[11] = test system: STREPTOCOCCUS PYOGENES PIU 2548; assay: as above; settings: S. pyogenes PIU 2548, unit assumed
M[…] ATCC 4698 = assay: as above; settings: M. luteus ATCC 4698, unit assumed
Method in brief: (§1)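 BHI agar dilution, 12 plates; inoculum 1:100 (1:10 slow-growing strains), Steers replicator; 35-37° C, 20-24 h. MIC = lowest conc. with no growth/slight haze/sparse colonies vs growth control, visual read. Erythromycin A reference plate.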

STR[…] 508 = assay: as above; settings: S. agalactiae CMX 508, unit assumed
Method in brief: as §1

M[…] ATCC 9341 = assay: as above; settings: M. luteus ATCC 9341, unit assumed
Method in brief: as §1

EN[…] ATCC 8043 = assay: as above; settings: E. faecium ATCC 8043, unit assumed
Method in brief: as §1

[12] = test system: ENTEROBACTER AEROGENES ATCC 13048; assay: as above; settings: E. aerogenes ATCC 13048, unit assumed
[13] = test system: PROVIDENCIA STUARTII CMX 640; settings: P. stuartii CMX 640; BHI agar; unit assumed
ESCHERICHIA COLI DC-2 = assay: In vitro antibacterial activity, MIC, BHI agar dilution; settings: E. coli DC-2, unit assumed
[14] = test system: STREPTOCOCCUS BOVIS A-5169; assay: as above; settings: S. bovis A-5169, unit assumed
ESCHERICHIA COLI JUHL = settings: E. coli JUHL; BHI agar; unit assumed
[15] = test system: STAPHYLOCOCCUS AUREUS A5177; assay: In vitro antibacterial activity, MIC, BHI agar dilution
[16] = test system: PSEUDOMONAS AERUGINOSA DPHD-2862; assay: as above; settings: P. aeruginosa DPHD-2862, unit assumed
CANDIDA ALBICANS CCH 442 = assay: as above; settings: C. albicans CCH 442, unit assumed
[17] = test system: STAPHYLOCOCCUS EPIDERMIDIS 3519; settings: S. epidermidis 3519; BHI agar; unit assumed
PSEUDOMONAS CEPACIA 296I = assay: In vitro antibacterial activity, MIC, BHI agar dilution; settings: P. cepacia 296I, unit assumed
[18] = test system: PSEUDOMONAS AERUGINOSA K799/WT; assay: as above; settings: P. aeruginosa K799/WT, unit assumed
[19] = test system: KLEBSIELLA PNEUMONIAE ATCC 8045; assay: as above; settings: K. pneumoniae ATCC 8045, unit assumed
ESCHERICHIA COLI SS = assay: as above; settings: E. coli SS, unit assumed
[20] = test system: STAPHYLOCOCCUS AUREUS NCTC10649M; assay: as above; settings: S. aureus NCTC10649M, unit assumed
ESCHERICHIA COLI KNK 437 = settings: E. coli KNK 437; BHI agar; unit assumed
[21] = test system: STAPHYLOCOCCUS AUREUS ATCC 6538P; assay: In vitro antibacterial activity, MIC, BHI agar dilution; settings: S. aureus ATCC 6538P, 35-37° C., 20 to 24 hours, unit assumed
[22] = test system: PSEUDOMONAS AERUGINOSA K799/61; assay: as above; settings: P. aeruginosa K799/61, unit assumed

Row | Structure (SMILES) | MIC [1] [µg/mL] | MIC [2] [µg/mL] | MIC [4] [µg/mL] | MIC [5] [µg/mL] | MIC [6] [µg/mL] | MIC [7] [µg/mL] | MIC (ESCHERICHIA COLI H560) [µg/mL] | MIC [9] [µg/mL] | MIC [10] [µg/mL] | MIC [11] [µg/mL] | MIC (M[…] ATCC 4698) [µg/mL] | MIC (STR[…] 508) [µg/mL] | MIC (M[…] ATCC 9341) [µg/mL] | MIC (EN[…] ATCC 8043) [µg/mL] | MIC [12] [µg/mL] | MIC [13] [µg/mL] | MIC (ESCHERICHIA COLI DC-2) [µg/mL] | MIC (ESCHERICHIA COLI JUHL) [µg/mL] | MIC [16] [µg/mL] | MIC (CANDIDA ALBICANS CCH 442) [µg/mL] | other results
1 | CC[C@H]1OC(=O)[C@H](C)C(=O)[C@H](C)[C@@H](O[C@@H]2O[C@H](C)C[C@H](N(C)C)[C@H]2O)[C@](C)(OC)C[C@@H](C)C2=NC[C@H](C)N3C(=O)O[C@@]1(C)[C@H]3[C@H]2C [Example 8] | > 100 | 0.78 (≈ 1.2 µM) | > 100 | > 100 | 100 (≈ 153 µM) | 0.78 (≈ 1.2 µM) | 25 (≈ 38.4 µM) | > 100 | 0.1 (≈ 0.153 µM) | 0.78 (≈ 1.2 µM) | 1.56 (≈ 2.39 µM) | 0.1 (≈ 0.153 µM) | 1.56 (≈ 2.39 µM) | 0.78 (≈ 1.2 µM) | 100 (≈ 153 µM) | > 100 | 50 (≈ 76.7 µM) | 100 (≈ 153 µM) | > 100 | > 100 | MIC [3]: > 100 µg/mL; MIC [8]: 6.2 µg/mL (≈ 9.51 µM); MIC [14]: 0.1 µg/mL (≈ 0.153 µM); MIC ([15]; S. aureus A5177, unit assumed): 0.78 µg/mL (≈ 1.2 µM); MIC [17]: 0.78 µg/mL (≈ 1.2 µM); MIC (PSEUDOMONAS CEPACIA 296I): > 100 µg/mL; MIC [18]: 100 µg/mL (≈ 153 µM); MIC [19]: 100 µg/mL (≈ 153 µM); MIC (ESCHERICHIA COLI SS): 0.78 µg/mL (≈ 1.2 µM); MIC [20]: 0.78 µg/mL (≈ 1.2 µM); MIC (ESCHERICHIA COLI KNK 437): 100 µg/mL (≈ 153 µM); MIC [21]: 0.78 µg/mL (≈ 1.2 µM)
2 | CC[C@H]1OC(=O)[C@H](C)[C@@H](O[C@H]2C[C@@](C)(OC)[C@@H](O)[C@H](C)O2)[C@H](C)[C@@H](O[C@@H]2O[C@H](C)C[C@H](N(C)C)[C@H]2O)[C@@H](C)C[C@@H](C)C2=NCCN3C(=O)O[C@@]1(C)[C@H]3[C@H]2C [Example 14] | > 100 | 0.1 (≈ 0.13 µM) | > 100 | > 100 | 100 (≈ 130 µM) | 0.2 (≈ 0.26 µM) | 50 (≈ 65.1 µM) | > 100 | ≤ 0.005 | 1.56 (≈ 2.03 µM) | 0.78 (≈ 1.02 µM) | 0.01 (≈ 0.013 µM) | 0.78 (≈ 1.02 µM) | 0.05 (≈ 0.0651 µM) | 100 (≈ 130 µM) | > 100 | 50 (≈ 65.1 µM) | 50 (≈ 65.1 µM) | > 100 | > 100 | MIC [8]: 3.1 µg/mL (≈ 4.04 µM); MIC [22]: 3.1 µg/mL (≈ 4.04 µM); MIC ([15]; S. aureus A5177): 6.2 µg/mL (≈ 8.07 µM); MIC [17]: 0.2 µg/mL (≈ 0.26 µM); MIC [18]: 100 µg/mL (≈ 130 µM); MIC [19]: 25 µg/mL (≈ 32.6 µM); MIC (ESCHERICHIA COLI SS): 0.39 µg/mL (≈ 0.508 µM); MIC [20]: 0.2 µg/mL (≈ 0.26 µM); MIC (ESCHERICHIA COLI KNK 437): 100 µg/mL (≈ 130 µM); MIC [21]: 0.1 µg/mL (≈ 0.13 µM)
3 | CC[C@H]1OC(=O)[C@H](C)C(=O)[C@H](C)[C@@H](O[C@@H]2O[C@H](C)C[C@H](N(C)C)[C@H]2O)[C@](C)(OC)C[C@@H](C)C2=N[C@@H]3CN(Cc4ccccc4)C[C@@H]3N3C(=O)O[C@@]1(C)[C@H]3[C@H]2C [Example 21] | > 100 | 0.78 (≈ 1.01 µM) | > 100 | > 100 | 100 (≈ 130 µM) | 6.2 (≈ 8.06 µM) | 50 (≈ 65 µM) | > 100 | 0.01 (≈ 0.013 µM) | 0.39 (≈ 0.507 µM) | 3.1 (≈ 4.03 µM) | 0.05 (≈ 0.065 µM) | 0.78 (≈ 1.01 µM) | 0.2 (≈ 0.26 µM) | > 100 | > 100 | 100 (≈ 130 µM) | > 100 | > 100 | > 100 | MIC [3]: 100 µg/mL (≈ 130 µM); MIC [22]: 3.1 µg/mL (≈ 4.03 µM); MIC [14]: 0.05 µg/mL (≈ 0.065 µM); MIC ([15]; S. aureus A5177, unit assumed): 0.78 µg/mL (≈ 1.01 µM); MIC [17]: 0.78 µg/mL (≈ 1.01 µM); MIC (PSEUDOMONAS CEPACIA 296I): > 100 µg/mL; MIC [18]: > 100 µg/mL; MIC [19]: > 100 µg/mL; MIC (ESCHERICHIA COLI SS): 1.56 µg/mL (≈ 2.03 µM); MIC [20]: 0.78 µg/mL (≈ 1.01 µM); MIC (ESCHERICHIA COLI KNK 437): > 100 µg/mL; MIC [21]: 0.78 µg/mL (≈ 1.01 µM)
